Here are results for 18 compounds from US12577234B2, “Antagonists of the muscarinic acetylcholine receptor M4” (Vanderbilt University, priority 2017, dated 2026).

The target of the assay is T1, human mAChR M4 (Homo sapiens, UniProt P08173).
T1 construct: expressed in transfected cells; host or cells: CHO-K1 (ATCC), stably co-expressing chimeric G protein Gqi5
T1 sequence (P08173 1-479): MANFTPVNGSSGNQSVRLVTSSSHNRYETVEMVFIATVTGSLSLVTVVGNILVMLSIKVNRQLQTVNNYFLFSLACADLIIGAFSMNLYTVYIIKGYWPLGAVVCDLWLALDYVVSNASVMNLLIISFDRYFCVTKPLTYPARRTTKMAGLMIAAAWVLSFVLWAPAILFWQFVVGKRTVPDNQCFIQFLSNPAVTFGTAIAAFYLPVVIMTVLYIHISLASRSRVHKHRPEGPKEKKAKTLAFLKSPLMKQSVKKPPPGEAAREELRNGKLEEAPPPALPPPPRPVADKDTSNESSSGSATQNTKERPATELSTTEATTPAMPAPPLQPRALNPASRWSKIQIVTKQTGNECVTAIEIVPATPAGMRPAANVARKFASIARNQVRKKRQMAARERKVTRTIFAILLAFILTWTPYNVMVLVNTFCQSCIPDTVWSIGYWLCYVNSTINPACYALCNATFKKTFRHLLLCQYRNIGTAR
As to the kind of experiment: mAChR M4 cell-based functional assay (calcium mobilization, EC80 acetylcholine), human M4. Conditions: for IC50: M4/Gqi5/CHO-K1 cells, decrease of EC80 acetylcholine response; for Emin: human M4, % ACh maximum at 30 μM. In a few lines:
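CHO-K1 cells stably expressing human M4 with chimeric Gqi5; intracellular calcium rise read on FDSS as fluorescence static ratio at 1 Hz. Compounds in 10-point 1:3 dilution series; IC50 taken as concentration-dependent decrease of the EC80 acetylcholine response, four-parameter logistic fit.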
A general note: Calcium flux is commonly read through the fluorescence of an indicator in the cells.

SMILES strings stand for the structures.

By IC50 is commonly meant the concentration that gives 50% inhibition. `Fc1ccc(Cl)c(-c2ccc(N[C@H]3C[C@@H]4CN(CC56CC7CC(CC(C7)C5)C6)C[C@@H]4C3)nn2)c1` [Compound 26, (3aR,5s,6aS)-2-(1-adamantylmethyl)-N-[6-(2-chloro-5-fluoro-phenyl)pyridazin-3-yl]-3,3a,4,5,6,6a-hexahydro-1H-cyclopenta[c]pyrrol-5-amine]: under “Table 9”, the half-maximal inhibitory concentration (IC50) was 0.128 µM and the Emin worked out at 3.20%.

Consider `Cc1nn(C)cc1-c1ccc(O[C@@H]2C[C@@H]3CN(CC(C)C(C)(C)C)C[C@@H]3C2)nn1` (stereo partly drawn) [Compound 46, (3aR,5r,6aS)-5-[6-(1,3-Dimethylpyrazol-4-yl)pyridazin-3-yl]oxy-2-(2,3,3-trimethylbutyl)-3,3a,4,5,6,6a-hexahydro-1H-cyclopenta[c]pyrrole], for which, where the note is “Table 9”, the IC50 came out at 1.13 µM and the Emin is listed as 4.08%.

`Cc1nn(C)cc1-c1ccc(N[C@H]2C[C@@H]3CN(CC4CCOCC4)C[C@@H]3C2)nc1` [Compound 152, (3aR,5s,6aS)-N-[5-(1,3-dimethylpyrazol-4-yl)-2-pyridyl]-2-(tetrahydropyran-4-ylmethyl)-3,3a,4,5,6,6a-hexahydro-1H-cyclopenta[c]pyrrol-5-amine]: for the setting “Table 10”, the “Human M4 Emin” value was determined as 8% and the IC50 came out at 1.58 µM.

Consider `Fc1ccc(Cl)c(-c2ccc(OCC3C[C@@H]4CN(CC5CCOCC5)C[C@@H]4C3)nn2)c1` (stereo partly drawn) [Compound 112, (3aR,6aS)-5-[[6-(2-chloro-5-fluoro-phenyl)pyridazin-3-yl]oxymethyl]-2-(tetrahydropyran-4-ylmethyl)-3,3a,4,5,6,6a-hexahydro-1H-cyclopenta[c]pyrrole], for which, under “Table 9”, the half-inhibitory concentration (IC50) turned out to be 0.609 µM and the Emin is 4.59%.

For the compound `CCCC(C)CN1C[C@H]2C[C@H](Nc3ccc(-c4cn(C)nc4C)nn3)C[C@H]2C1` (some centres unmarked) [compound 14], the half-inhibitory concentration (IC50) (Table 9) amounted to 0.0048 µM.

In the case of `Fc1ccc(CN2C[C@H]3CC(COc4ccc(-c5cc(F)ccc5Cl)nn4)C[C@H]3C2)cc1` (stereo partly drawn) [Compound 116, (3aR,6aS)-5-[[6-(2-chloro-5-fluoro-phenyl)pyridazin-3-yl]oxymethyl]-2-[(4-fluorophenyl)methyl]-3,3a,4,5,6,6a-hexahydro-1H-cyclopenta[c]pyrrole], where the note is “Table 9”, the IC50 was 3.38 µM and the Emin is given as 6.49%.

As for `Cc1cnn(C)c1-c1ccc(OCC2C[C@@H]3CN(Cc4ccccn4)C[C@@H]3C2)nn1` (stereo partly drawn) [Compound 89, (3aR,6aS)-5-[[6-(2,4-dimethylpyrazol-3-yl)pyridazin-3-yl]oxymethyl]-2-(2-pyridylmethyl)-3,3a,4,5,6,6a-hexahydro-1H-cyclopenta[c]pyrrole], under “Table 9”, the 50% inhibitory concentration (IC50) came to 8.08 µM and the Emin stood at 18.1%.

Consider `Fc1ccc(Cl)c(-c2ccc(NC[C@H]3C[C@@H]4CN(CC5CCOCC5)C[C@@H]4C3)nn2)c1` [Compound 71, N-[[(3aR,5s,6aS)-2-(tetrahydropyran-4-ylmethyl)-3,3a,4,5,6,6a-hexahydro-1H-cyclopenta[c]pyrrol-5-yl]methyl]-6-(2-chloro-5-fluoro-phenyl)pyridazin-3-amine], for which, for the setting “Table 9”, the IC50 worked out at 0.364 µM and the Emin worked out at 3.81%.

Regarding `CC(C)(C)CCN1C[C@H]2C[C@H](Oc3ccc(-c4ccc(C(F)(F)F)cc4)nn3)C[C@H]2C1` [Compound 139, (3aR,5s,6aS)-2-(3,3-dimethylbutyl)-5-[6-[4-(trifluoromethyl)phenyl]pyridazin-3-yl]oxy-3,3a,4,5,6,6a-hexahydro-1H-cyclopenta[c]pyrrole], where the note is “Table 10”, the “Human M4 Emin” value stood at 4% and the IC50 is 1.56 µM.

As to `Cc1nn(C)cc1-c1ccc(OCC2C[C@@H]3CN(CCC(C)(C)C)C[C@@H]3C2)nn1` (stereo partly drawn) [Compound 92, (3sR,6aS)-2-(3,3-dimethylbutyl)-5-[[6-(1,3-dimethylpyrazol-4-yl)pyridazin-3-yl]oxymethyl]-3,3a,4,5,6,6a-hexahydro-1H-cyclopenta[c]pyrrole], where the note is “Table 9”, the half-inhibitory concentration (IC50) worked out at 0.0583 µM and the Emin came out at 4.01%.

Take `Fc1ccc(Cl)c(-c2ccc(N[C@H]3C[C@@H]4CN(Cc5cn6ccccc6n5)C[C@@H]4C3)nn2)c1` [Compound 165, (3aR,5s,6aS)-N-[6-(2-chloro-5-fluoro-phenyl)pyridazin-3-yl]-2-(imidazo[1,2-a]pyridin-2-ylmethyl)-3,3a,4,5,6,6a-hexahydro-1H-cyclopenta[c]pyrrol-5-amine]: for the setting “Table 10”, the “Human M4 Emin” value is on record as 3% and the concentration for half-maximal inhibition (IC50) worked out at 0.0689 µM.

Take `Cc1nn(C)cc1-c1ccc(OCC2C[C@@H]3CN(CC4CCCOC4)C[C@@H]3C2)nn1` (stereo partly drawn) [Compound 99, (3aR,6aS)-5-[[6-(1,3-dimethylpyrazol-4-yl)pyridazin-3-yl]oxymethyl]-2-(tetrahydropyran-3-ylmethyl)-3,3a,4,5,6,6a-hexahydro-1H-cyclopenta[c]pyrrole]: for the setting “Table 9”, the IC50 was 2.49 µM and the Emin is 7.75%.

With `Fc1ccc(Cl)c(-c2ccc(N[C@H]3C[C@@H]4CN(CC5CCCCC5)C[C@@H]4C3)nn2)c1` [Compound 31, (3aR,5s,6aS)-N-[6-(2-chloro-5-fluoro-phenyl)pyridazin-3-yl]-2-(cyclohexylmethyl)-3,3a,4,5,6,6a-hexahydro-1H-cyclopenta[c]pyrrol-5-amine], for the setting “Table 9”, the concentration for half-maximal inhibition (IC50) amounted to 0.0086 µM and the Emin came out at 4.96%.

On to `CCn1ccc(-c2ccc(N[C@H]3C[C@@H]4CN(CC5CCOCC5)C[C@@H]4C3)nn2)n1` [Compound 228, (3aR,5s,6aS)-N-[6-(1-ethylpyrazol-3-yl)pyridazin-3-yl]-2-(tetrahydropyran-4-ylmethyl)-3,3a,4,5,6,6a-hexahydro-1H-cyclopenta[c]pyrrol-5-amine], for which, for the setting “Table 10”, the “Human M4 Emin” value is listed as 28% and the IC50 was 0.038 µM.

In the case of `Cc1cnn(C)c1-c1ccc(NC(=O)C2CC3CN(CC4CC5C=CC4C5)CC3C2)nn1` (centres unmarked) [Compound 77, 2-(5-bicyclo[2.2.1]hept-2-enylmethyl)-N-[6-(2,4-dimethylpyrazol-3-yl)pyridazin-3-yl]-3,3a,4,5,6,6a-hexahydro-1H-cyclopenta[c]pyrrole-5-carboxamide], for the setting “Table 9”, the IC50 came to 0.408 µM and the Emin was determined as 3.86%.

Take `Cc1cnn(C)c1-c1ccc(OCC2C[C@@H]3CN(Cc4ccc(F)cc4)C[C@@H]3C2)nn1` (stereo partly drawn) [Compound 88, (3R,6aS)-5-[[6-(2,4-dimethylpyrazol-3-yl)pyridazin-3-yl]oxymethyl]-2-[(4-fluorophenyl)methyl]-3,3a,4,5,6,6a-hexahydro-1H-cyclopenta[c]pyrrole]: where the note is “Table 9”, the half-maximal inhibitory concentration (IC50) was 4.19 µM and the Emin is on record as 9.57%.

For `c1cnc2ccc(-c3ccc(N[C@H]4C[C@@H]5CN(CC6CCOCC6)C[C@@H]5C4)nn3)cc2c1` [Compound 181, (3aR,5s,6aS)-N-[6-(6-quinolyl)pyridazin-3-yl]-2-(tetrahydropyran-4-ylmethyl)-3,3a,4,5,6,6a-hexahydro-1H-cyclopenta[c]pyrrol-5-amine], under “Table 10”, the “Human M4 Emin” value is reported as 4% and the IC50 was 0.00142 µM.

As for `Cc1cnn(C)c1-c1ccc(NCCC2C[C@@H]3CN(Cc4ccccc4)C[C@@H]3C2)nn1` (stereo partly drawn) [Compound 126, N-[2-[(3aR,6aS)-2-benzyl-3,3a,4,5,6,6a-hexahydro-1H-cyclopenta[c]pyrrol-5-yl]ethyl]-6-(2,4-dimethylpyrazol-3-yl)pyridazin-3-amine], under “Table 9”, the IC50 is 0.023 µM and the Emin was 3.89%.
